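All cell lines were grown in 96-well plates and treated with compound for 48 hours. GI50 is the concentration that inhibits growth by half. TGI denotes the concentration required for complete inhibition of growth.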
What was measured:
Assay in all cases: NCI-60 cell line screen, 48 h
[1] = test system: T-47D breast
[2] = test system: SNB-75 CNS
[3] = test system: HCT-15 colon
[4] = test system: SF-268 CNS
[5] = test system: MOLT-4 leukemia
[6] = test system: OVCAR-3 ovarian
[7] = test system: UO-31 renal
[8] = test system: K-562 leukemia
[9] = test system: NCI-H460 lung
[10] = test system: EKVX NSCLC

O=C(COc1ccc(Cl)cc1Cl)NNc1ccc([N+](=O)[O-])cc1
GI50 [1]: 43.3 µM | TGI [1]: > 100 µM | GI50 [2]: 15.3 µM | TGI [2]: 33.7 µM | GI50 [3]: > 100 µM | TGI [3]: > 100 µM | GI50 [4]: 36.9 µM | TGI [4]: > 100 µM | GI50 [5]: 81.6 µM | TGI [5]: > 100 µM | GI50 [6]: > 100 µM | TGI [6]: > 100 µM | GI50 [7]: > 100 µM | TGI [7]: > 100 µM | GI50 [8]: 39 µM | TGI [8]: > 100 µM | GI50 [9]: > 100 µM | TGI [9]: > 100 µM

O=c1[nH]c(C2CCCCC2)nc2ccc(Cl)cc12
TGI [2]: > 100 µM | TGI [3]: > 100 µM | TGI [10]: > 100 µM | TGI [4]: > 100 µM | TGI [5]: > 100 µM | TGI [6]: > 100 µM | TGI [7]: > 100 µM | TGI [8]: > 100 µM

Cc1c2cc[n+](C)cc2c(C)c2c1[nH]c1ccc(OC(C)(C)C)cc12
TGI [2]: > 100 µM | TGI [3]: > 100 µM | TGI [4]: > 100 µM | TGI [5]: > 100 µM | TGI [7]: > 100 µM | TGI [8]: > 100 µM | TGI [9]: > 100 µM

Nc1nc(N)c2c(n1)NC(c1ccc(Cl)cc1)C1CCc3ccccc3C1=N2 (centres undefined)
GI50 [1]: 4.09 µM | TGI [1]: 17.8 µM | GI50 [2]: 13 µM | TGI [2]: 26.8 µM | GI50 [3]: 4.16 µM | TGI [3]: 18.5 µM | GI50 [10]: 3.62 µM | TGI [10]: 21 µM | GI50 [4]: 12.4 µM | TGI [4]: 26.9 µM | GI50 [6]: 6.46 µM | TGI [6]: 19 µM | GI50 [7]: 3.63 µM | TGI [7]: 17.4 µM | GI50 [9]: 3.77 µM | TGI [9]: 12.9 µM

Nc1ncnc2c1ncn2Cc1ccc(CCl)cc1
GI50 [1]: 8 µM | TGI [1]: 27.4 µM | GI50 [2]: 22.3 µM | TGI [2]: 62.6 µM | GI50 [3]: 21.9 µM | TGI [3]: 41.5 µM | GI50 [10]: 17 µM | TGI [10]: 34.9 µM | GI50 [4]: 21.8 µM | TGI [4]: 57.9 µM | GI50 [6]: 14.3 µM | TGI [6]: 31.7 µM | GI50 [7]: 22.3 µM | TGI [7]: 46.8 µM | GI50 [8]: 14.9 µM | TGI [8]: > 100 µM | GI50 [9]: 17 µM | TGI [9]: 41.1 µM

CCCCCCCN(CCCCCCC)C(=N)c1ccc(OC)c2ccccc12
GI50 [1]: 1.56 µM | TGI [1]: 3.33 µM | GI50 [2]: 1.3 µM | TGI [2]: 2.6 µM | GI50 [10]: 1.37 µM | TGI [10]: 2.85 µM | GI50 [4]: 1.49 µM | TGI [4]: 3.16 µM | GI50 [6]: 1.6 µM | TGI [6]: 3.17 µM | GI50 [7]: 0.971 µM | TGI [7]: 2.36 µM

COc1ccc(C2[C@@H](Cl)C(=O)N2c2ccc(OC)cc2)cc1 (some centres undefined)
TGI [2]: 64.1 µM | TGI [10]: > 100 µM | TGI [4]: > 100 µM | TGI [5]: > 100 µM | TGI [6]: > 100 µM | TGI [7]: > 100 µM | TGI [8]: > 100 µM | TGI [9]: > 100 µM

CC1NCCC(CC(=O)O)C1CC(=O)O (centres undefined)
TGI [1]: > 100 µM | TGI [2]: > 100 µM | TGI [3]: > 100 µM | TGI [10]: > 100 µM | TGI [4]: > 100 µM | TGI [6]: > 100 µM | TGI [7]: > 100 µM | TGI [8]: > 100 µM | TGI [9]: > 100 µM

COc1ccc(C2CC(=O)Nc3c2c(C)nn3-c2nc3ccccc3[nH]2)cc1OC (centres undefined)
GI50 [1]: 4.49 µM | TGI [1]: 50.1 µM | GI50 [2]: 3.46 µM | TGI [2]: > 56.1 µM | GI50 [3]: 4.76 µM | TGI [3]: > 58.9 µM | GI50 [4]: 5.07 µM | TGI [4]: > 69.5 µM | GI50 [5]: 0.0405 µM | TGI [5]: 0.27 µM | GI50 [6]: 3.99 µM | TGI [6]: 14 µM | GI50 [7]: 3.37 µM | TGI [7]: 14.6 µM | GI50 [8]: 4.81 µM | TGI [8]: > 100 µM | GI50 [9]: 3.46 µM | TGI [9]: 16.2 µM

Oc1ccc(Cl)cc1N=Nc1c(O)ccc2ccccc12
TGI [2]: > 100 µM | TGI [3]: > 100 µM | TGI [10]: > 100 µM | TGI [4]: > 100 µM | TGI [5]: > 100 µM | TGI [6]: > 100 µM | TGI [7]: > 100 µM | TGI [8]: > 100 µM

Nc1cc2c3ccccc3ccc2c2ccccc12
GI50 [1]: > 38.1 µM | TGI [1]: > 100 µM | GI50 [2]: > 30.5 µM | TGI [2]: > 100 µM | GI50 [3]: 3.92 µM | TGI [3]: > 100 µM | GI50 [4]: > 100 µM | TGI [4]: > 100 µM | GI50 [5]: > 100 µM | TGI [5]: > 100 µM | GI50 [6]: > 67 µM | TGI [6]: > 100 µM | GI50 [7]: > 100 µM | TGI [7]: > 100 µM | GI50 [8]: 19.3 µM | TGI [8]: > 100 µM | GI50 [9]: 7.63 µM | TGI [9]: > 100 µM

COC(=O)/C(=C1\OC(=O)C(c2ccc(Cl)cc2)=C1O)c1ccc(Cl)cc1
TGI [2]: 73 µM | TGI [10]: 72.5 µM | TGI [4]: > 100 µM | TGI [5]: 65.5 µM | TGI [6]: 87.6 µM | TGI [7]: 68.9 µM | TGI [8]: 86.9 µM | TGI [9]: 92.4 µM

CC1=NN(c2ccccc2)C(=O)C1N=Nc1ccc(Br)cc1C (centres undefined)
TGI [2]: 48.3 µM | TGI [3]: > 100 µM | TGI [10]: > 100 µM | TGI [4]: > 100 µM | TGI [5]: > 100 µM | TGI [6]: > 100 µM | TGI [8]: > 100 µM | TGI [9]: > 100 µM

Cc1ccccc1C1SCc2nc3ccccc3n21 (centres undefined)
TGI [2]: > 100 µM | TGI [10]: > 100 µM | TGI [4]: > 100 µM | TGI [6]: > 100 µM | TGI [7]: > 100 µM | TGI [8]: > 100 µM

OCC1OC(NO)C(O)C(O)C1O (centres undefined)
TGI [3]: > 100 µM | TGI [4]: > 100 µM | TGI [5]: > 100 µM | TGI [6]: > 100 µM | TGI [8]: > 100 µM | TGI [9]: > 100 µM

CC1O[C@@H]2CCCCC(=O)[C@]2(C)[C@H]1C (some centres undefined)
TGI [2]: > 100 µM | TGI [3]: > 100 µM | TGI [10]: > 100 µM | TGI [5]: > 100 µM | TGI [6]: > 100 µM | TGI [7]: > 100 µM | TGI [8]: > 100 µM | TGI [9]: > 100 µM

O=S1c2ccccc2N=C(c2cccs2)CC1c1ccccc1O (centres undefined)
TGI [2]: > 100 µM | TGI [3]: > 100 µM | TGI [10]: > 100 µM | TGI [4]: > 100 µM | TGI [5]: > 100 µM | TGI [6]: > 100 µM | TGI [7]: > 100 µM | TGI [8]: > 100 µM | TGI [9]: > 100 µM

Cc1c(-c2c(F)cc(C(N)=O)c3[nH]c4c(c23)CC[C@H](C(C)(C)O)C4)cccc1-n1c(=O)c2cccc(F)c2n(C)c1=O
GI50 [1]: 3.39 µM | TGI [1]: > 100 µM | GI50 [3]: 2.7 µM | TGI [3]: > 100 µM | GI50 [10]: 1.95 µM | TGI [10]: > 100 µM | GI50 [4]: 4.91 µM | TGI [4]: > 100 µM | GI50 [5]: 1.77 µM | TGI [5]: 6.58 µM | GI50 [6]: 3.95 µM | TGI [6]: > 100 µM | GI50 [7]: 1.01 µM | TGI [7]: 5.59 µM | GI50 [8]: 3.61 µM | TGI [8]: > 100 µM | GI50 [9]: 3.43 µM | TGI [9]: > 100 µM

CCn1c(C)nc([N+](=O)[O-])c1Sc1ncc[nH]1
TGI [2]: > 100 µM | TGI [10]: > 100 µM | TGI [4]: > 100 µM | TGI [5]: 76.8 µM | TGI [6]: > 100 µM | TGI [7]: > 100 µM | TGI [8]: > 100 µM | TGI [9]: > 100 µM

O=S1(=O)CC#CC[C@@H](CO)[C@@H](CO)CC#CC1
TGI [2]: > 100 µM | TGI [3]: > 100 µM | TGI [10]: > 100 µM | TGI [5]: > 100 µM | TGI [6]: > 100 µM | TGI [7]: > 100 µM | TGI [8]: > 100 µM | TGI [9]: > 100 µM

— PubChem BioAssay (NCI)
